Columns and labels:
[1] = biological target: Keap1-Nrf2 protein-protein interaction (Keap1 Kelch domain protein, FITC-9mer Nrf2 polypeptide probe) (Homo sapiens (Human), UniProt Q14145); test: Fluorescence polarization-based Keap1-Nrf2 protein-protein interaction inhibition experiment (FP experiment); type: binding; conditions: for IC50: FP experiment, Keap1 Kelch domain, FITC-9mer Nrf2 probe
Experimental: Fluorescence Polarization-Based Keap1-Nrf2 Protein-Protein Interaction Inhibition Experiment (FP Experiment)
The instrument used in the FP experiment was the SpectraMax Multi-Mode Microplate Reader (Molecular Devices), and the excitation and emission wavelengths of the instrument were selected based on the corresponding fluorophore.
Before the test, the system was mixed well and incubated for 30 minutes at room temperature. […] In this study, the fluorescence intensities in horizontal and vertical directions (F∥ and F^⊥) were used to calculate the millipolarization value (mP), so as to reflect the changes of the polarized light.
where Pmax, Pmin, and Pobs represent the polarization value in the well containing Keap1 and the fluorescence probe, the polarization value in the well containing the fluorescence probe, and the polarization value of the well containing the inhibitor, respectively. The IC50 of the compounds was calculated from curve of the inhibition rate against the inhibitor concentration.

[2] = system: ARE (HepG2-ARE-C8 cells); test: ARE luciferase reporter assay; type: cell-based; conditions: for Luciferase reporter activity (fold of induction): HepG2-ARE-C8 cells, 12 hrs
Experimental: ARE Luciferase Reporter Assay
100 μL was added to a 96-well microtiter plate and incubated overnight.
(2) 2 times of the desired concentration of the test compound was formulated in a culture medium, and 100 μL was added respectively to the corresponding wells. tBHQ was used as a positive control and DMSO was used as a negative control. The 96-well microtiter plate added with the compound was incubated for 12 hrs at a constant temperature of 37° C., 5% CO2, and saturated humidity.
(3) The 5× lysis buffer in the Luciferase Assay Kit was formulated into a 1× lysis buffer for future use.
(4) The 96-well microtiter plate was removed, the medium was aspirated from the wells, the cells were washed with 1×PBS buffer, and the PBS buffer was aspirated off after the wash. […] After the lysis, the lysate was stood for 3-5 min, and 20 μL of the lysate supernatant was aspirated into a corresponding 96-well white plate.
(5) The 96-well white plate was positioned in the Thermo Scientific Luminoskan Ascent Chemiluminescence Micropore Reader. 100 μL of a luciferase assay reagent (obtained by uniformly mixing 1 bottle of luciferase assay substrate in the luciferase assay kit and 1 bottle of luciferase detection buffer) was added to each well before the test, and the plate was read within 1 min after the test reagent was added.

Sequence of Keap1-Nrf2 protein-protein interaction (Keap1 Kelch domain protein, FITC-9mer Nrf2 polypeptide probe) (Q14145 321-609): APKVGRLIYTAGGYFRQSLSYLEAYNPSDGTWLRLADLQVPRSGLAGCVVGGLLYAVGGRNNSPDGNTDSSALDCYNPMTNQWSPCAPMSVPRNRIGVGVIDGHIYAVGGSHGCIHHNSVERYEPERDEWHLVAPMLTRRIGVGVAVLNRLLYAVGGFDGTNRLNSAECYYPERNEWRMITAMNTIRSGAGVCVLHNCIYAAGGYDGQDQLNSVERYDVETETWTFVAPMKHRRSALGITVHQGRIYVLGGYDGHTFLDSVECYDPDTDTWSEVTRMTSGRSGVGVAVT

**Q.** “2-(4-(2,4,6-trimethyl-N-(2-(hydroxylamino)-2-oxoethylbenzenesulfonamido) naphthalen-1-oxy)-benzeneacetic acid [Compound I-13]” was tested. Which IC50 [1] did it give?
**A.** 980 nM

**Q.** What about the “Luciferase reporter activity (fold of induction)” value ([2]; 0.1 μmol/L) of the same compound?
**A.** 1.07 fold of induction

**Q.** What about the “Luciferase reporter activity (fold of induction)” value ([2]; 1 μmol/L) of the same compound?
**A.** 1.16 fold of induction

**Q.** What about the “Luciferase reporter activity (fold of induction)” value ([2]; 10 μmol/L) of the same compound?
**A.** 1.21 fold of induction

**Q.** For “2-(4-(2,4,6-trimethylbenzenesulfonamido)naphthalen-1-oxy)benzeneacetic acid [Compound I-11]”, which IC50 [1] is on record?
**A.** 2430 nM

**Q.** And the “Luciferase reporter activity (fold of induction)” value ([2]; 0.1 μmol/L)?
**A.** 1.02 fold of induction

**Q.** What about the “Luciferase reporter activity (fold of induction)” value ([2]; 1 μmol/L) of the same compound?
**A.** 1.34 fold of induction

**Q.** And the “Luciferase reporter activity (fold of induction)” value ([2]; 10 μmol/L)?
**A.** 1.14 fold of induction

**Q.** “2-(4-(2,4,6-trimethylbenzenesulfonamido)naphthalen-1-yl)oxy)-2-benzeneacetic acid [Compound I-2]” was tested. Which IC50 [1] did it give?
**A.** 1320 nM

**Q.** And the “Luciferase reporter activity (fold of induction)” value ([2]; 0.1 μmol/L)?
**A.** 1.21 fold of induction

**Q.** And the “Luciferase reporter activity (fold of induction)” value ([2]; 1 μmol/L)?
**A.** 1.10 fold of induction

**Q.** And the “Luciferase reporter activity (fold of induction)” value ([2]; 10 μmol/L)?
**A.** 1.05 fold of induction

**Q.** How did the IC50 [1] turn out when “3-(4-((N-carboxymethyl)-2,4,6-trimethylbenzenesulfonamido)naphthalen-1-yloxy)-(4-methoxyphenyl)propionic acid [Compound I-20]” was run?
**A.** 830 nM

**Q.** What about the “Luciferase reporter activity (fold of induction)” value ([2]; 0.1 μmol/L) of the same compound?
**A.** 1.02 fold of induction

**Q.** What about the “Luciferase reporter activity (fold of induction)” value ([2]; 1 μmol/L) of the same compound?
**A.** 1.13 fold of induction

**Q.** What about the “Luciferase reporter activity (fold of induction)” value ([2]; 10 μmol/L) of the same compound?
**A.** 1.28 fold of induction

**Q.** `COc1ccc(S(=O)(=O)N(CC(=O)O)c2ccc(Oc3ccccc3CC(=O)O)c3ccccc23)cc1` [Compound I-1] was tested. Which IC50 [1] did it give?
**A.** 2280 nM

**Q.** And the “Luciferase reporter activity (fold of induction)” value ([2]; 0.1 μmol/L)?
**A.** 0.98 fold of induction

**Q.** What about the “Luciferase reporter activity (fold of induction)” value ([2]; 1 μmol/L) of the same compound?
**A.** 1.10 fold of induction

**Q.** What about the “Luciferase reporter activity (fold of induction)” value ([2]; 10 μmol/L) of the same compound?
**A.** 1.07 fold of induction

**Q.** For `Cc1cc(C)c(S(=O)(=O)N(CC(=O)O)c2ccc(Oc3ccccc3CC(=O)O)c3ccccc23)c(C)c1` [Compound I-3], which IC50 [1] is on record?
**A.** 580 nM

**Q.** And the “Luciferase reporter activity (fold of induction)” value ([2]; 0.1 μmol/L)?
**A.** 0.95 fold of induction

**Q.** And the “Luciferase reporter activity (fold of induction)” value ([2]; 1 μmol/L)?
**A.** 1.03 fold of induction

**Q.** What about the “Luciferase reporter activity (fold of induction)” value ([2]; 10 μmol/L) of the same compound?
**A.** 1.31 fold of induction

**Q.** For `CC(C)(C)c1ccc(S(=O)(=O)N(CC(=O)O)c2ccc(OC(C(=O)O)c3ccccc3)c3ccccc23)cc1` (stereo not shown) [Compound I-4], which IC50 [1] is on record?
**A.** 980 nM

**Q.** And the “Luciferase reporter activity (fold of induction)” value ([2]; 0.1 μmol/L)?
**A.** 1.04 fold of induction

**Q.** What about the “Luciferase reporter activity (fold of induction)” value ([2]; 1 μmol/L) of the same compound?
**A.** 1.12 fold of induction

**Q.** And the “Luciferase reporter activity (fold of induction)” value ([2]; 10 μmol/L)?
**A.** 1.13 fold of induction

**Q.** How did the IC50 [1] turn out when `COc1ccc(S(=O)(=O)N(CC(=O)O)c2ccc(Oc3ccccc3CC(=O)O)c3ccccc23)cc1OC` [Compound I-5] was run?
**A.** 2300 nM

**Q.** What about the “Luciferase reporter activity (fold of induction)” value ([2]; 0.1 μmol/L) of the same compound?
**A.** 0.92 fold of induction

**Q.** And the “Luciferase reporter activity (fold of induction)” value ([2]; 1 μmol/L)?
**A.** 1.05 fold of induction

**Q.** And the “Luciferase reporter activity (fold of induction)” value ([2]; 10 μmol/L)?
**A.** 1.10 fold of induction

**Q.** `COc1cc(OC)c(S(=O)(=O)N(CC(=O)O)c2ccc(OC(C(=O)O)c3ccccc3)c3ccccc23)c(OC)c1` (stereo not shown) [Compound I-6] was tested. Which IC50 [1] did it give?
**A.** 640 nM

**Q.** And the “Luciferase reporter activity (fold of induction)” value ([2]; 0.1 μmol/L)?
**A.** 1.01 fold of induction

**Q.** And the “Luciferase reporter activity (fold of induction)” value ([2]; 1 μmol/L)?
**A.** 1.26 fold of induction

**Q.** What about the “Luciferase reporter activity (fold of induction)” value ([2]; 10 μmol/L) of the same compound?
**A.** 1.09 fold of induction

**Q.** With `CC(=O)Nc1ccc(S(=O)(=O)N(CC(=O)O)c2ccc(Oc3ccccc3CC(=O)O)c3ccccc23)cc1` [Compound I-7] as the compound, how does the IC50 [1] read?
**A.** 5230 nM

**Q.** What about the “Luciferase reporter activity (fold of induction)” value ([2]; 0.1 μmol/L) of the same compound?
**A.** 0.97 fold of induction

**Q.** What about the “Luciferase reporter activity (fold of induction)” value ([2]; 1 μmol/L) of the same compound?
**A.** 1.01 fold of induction

**Q.** And the “Luciferase reporter activity (fold of induction)” value ([2]; 10 μmol/L)?
**A.** 1.03 fold of induction

**Q.** Which IC50 [1] does the source give for `O=C(O)CN(c1ccc(OC(C(=O)O)c2ccccc2)c2ccccc12)S(=O)(=O)c1ccc([N+](=O)[O-])cc1` (stereo not shown) [Compound I-8, 2-(4-(N-(carboxymethyl)-4-nitrobenzenesulfonamido))naphthalen-1-oxy) benzeneacetate] here?
**A.** 4790 nM

**Q.** What about the “Luciferase reporter activity (fold of induction)” value ([2]; 0.1 μmol/L) of the same compound?
**A.** 1.05 fold of induction

**Q.** What about the “Luciferase reporter activity (fold of induction)” value ([2]; 1 μmol/L) of the same compound?
**A.** 1.23 fold of induction

**Q.** And the “Luciferase reporter activity (fold of induction)” value ([2]; 10 μmol/L)?
**A.** 1.14 fold of induction

**Q.** With `O=C(O)CN(c1ccc(OC(C(=O)O)c2ccccc2)c2ccccc12)S(=O)(=O)c1ccc(F)cc1` (stereo not shown) [Compound I-9] as the compound, how does the IC50 [1] read?
**A.** 5160 nM

**Q.** What about the “Luciferase reporter activity (fold of induction)” value ([2]; 0.1 μmol/L) of the same compound?
**A.** 1.02 fold of induction

**Q.** What about the “Luciferase reporter activity (fold of induction)” value ([2]; 1 μmol/L) of the same compound?
**A.** 1.13 fold of induction

**Q.** And the “Luciferase reporter activity (fold of induction)” value ([2]; 10 μmol/L)?
**A.** 1.08 fold of induction

**Q.** Which results are given for `O=C(O)Cc1ccccc1Oc1ccc(N(CC(=O)O)S(=O)(=O)c2ccc(C(F)(F)F)cc2)c2ccccc12` [Compound I-10]?
**A.** IC50 [1]: 6660 nM; Luciferase reporter activity (fold of induction) ([2]; 0.1 μmol/L): 0.92 fold of induction; Luciferase reporter activity (fold of induction) ([2]; 1 μmol/L): 0.95 fold of induction; Luciferase reporter activity (fold of induction) ([2]; 10 μmol/L): 1.10 fold of induction

**Q.** What does the source list for `Cc1cc(C)c(S(=O)(=O)N(Cc2nn[nH]n2)c2ccc(Oc3ccccc3CC(=O)O)c3ccccc23)c(C)c1` [Compound I-12, 2-(4-((N-(2H-tetrazol-5-yl)methyl)-2,4,6-trimethylbenzenesulfonamido)naphthalen-1-oxy)benzeneacetic acid]?
**A.** IC50 [1]: 830 nM; Luciferase reporter activity (fold of induction) ([2]; 0.1 μmol/L): 1.05 fold of induction; Luciferase reporter activity (fold of induction) ([2]; 1 μmol/L): 1.19 fold of induction; Luciferase reporter activity (fold of induction) ([2]; 10 μmol/L): 1.36 fold of induction

**Q.** With `CCOc1ccc(C(Oc2ccc(N(CC(=O)O)S(=O)(=O)c3c(C)cc(C)cc3C)c3ccccc23)C(=O)O)cc1` (stereo not shown) [Compound I-15] as the compound, how does the “FP activity compared with the positive control Nrf2 9mer polypeptide” value [1] read?
**A.** better than the positive control

**Q.** What about the IC50 [1] of the same compound?
**A.** 84 nM

**Q.** What about the “Luciferase reporter activity (fold of induction)” value ([2]; 0.1 μmol/L) of the same compound?
**A.** 1.33 fold of induction

**Q.** And the “Luciferase reporter activity (fold of induction)” value ([2]; 1 μmol/L)?
**A.** 2.05 fold of induction

**Q.** And the “fold of induction compared with the positive control tBHQ” value ([2]; 10 μM)?
**A.** significantly higher than that of the positive control tBHQ

**Q.** And the “Luciferase reporter activity (fold of induction)” value ([2]; 10 μmol/L)?
**A.** 3.92 fold of induction

**Q.** Which “FP activity compared with the positive control Nrf2 9mer polypeptide” value [1] does the source give for `CC(=O)Nc1ccc(C(Oc2ccc(N(CC(=O)O)S(=O)(=O)c3c(C)cc(C)cc3C)c3ccccc23)C(=O)O)cc1` (stereo not shown) [Compound I-16] here?
**A.** better than the positive control

**Q.** What about the IC50 [1] of the same compound?
**A.** 90 nM

**Q.** And the “Luciferase reporter activity (fold of induction)” value ([2]; 0.1 μmol/L)?
**A.** 1.21 fold of induction

**Q.** And the “Luciferase reporter activity (fold of induction)” value ([2]; 1 μmol/L)?
**A.** 1.98 fold of induction

**Q.** And the “Luciferase reporter activity (fold of induction)” value ([2]; 10 μmol/L)?
**A.** 3.23 fold of induction

**Q.** With `COc1cc(OC)c(S(=O)(=O)N(CC(=O)O)c2ccc(OC(C(=O)O)c3ccc(OC(C)C)cc3)c3ccccc23)c(OC)c1` (stereo not shown) [Compound I-17] as the compound, how does the IC50 [1] read?
**A.** 320 nM

**Q.** And the “Luciferase reporter activity (fold of induction)” value ([2]; 0.1 μmol/L)?
**A.** 1.39 fold of induction

**Q.** What about the “Luciferase reporter activity (fold of induction)” value ([2]; 1 μmol/L) of the same compound?
**A.** 1.39 fold of induction

**Q.** And the “Luciferase reporter activity (fold of induction)” value ([2]; 10 μmol/L)?
**A.** 2.07 fold of induction

**Q.** For `COc1cc(OC)c(S(=O)(=O)N(CC(=O)O)c2ccc(OC(C(=O)O)c3ccc(F)cc3)c3ccccc23)c(OC)c1` (stereo not shown) [Compound I-18], which IC50 [1] is on record?
**A.** 310 nM

**Q.** And the “Luciferase reporter activity (fold of induction)” value ([2]; 0.1 μmol/L)?
**A.** 1.03 fold of induction

**Q.** And the “Luciferase reporter activity (fold of induction)” value ([2]; 1 μmol/L)?
**A.** 1.42 fold of induction

**Q.** And the “Luciferase reporter activity (fold of induction)” value ([2]; 10 μmol/L)?
**A.** 1.57 fold of induction

**Q.** `COc1ccc(C(Oc2ccc(N(Cc3nn[nH]n3)S(=O)(=O)c3c(C)cc(C)cc3C)c3ccccc23)C(=O)O)cc1` (stereo not shown) [Compound I-19, 2-(4-((N-(2H-tetrazol-5-yl)methyl)-2,4,6-trimethylbenzenesulfonamido)naphthalen-1-oxy)-(4-methoxyphenyl)acetic acid] was tested. Which IC50 [1] did it give?
**A.** 140 nM

**Q.** What about the “Luciferase reporter activity (fold of induction)” value ([2]; 0.1 μmol/L) of the same compound?
**A.** 0.97 fold of induction

**Q.** And the “Luciferase reporter activity (fold of induction)” value ([2]; 1 μmol/L)?
**A.** 1.43 fold of induction

**Q.** And the “Luciferase reporter activity (fold of induction)” value ([2]; 10 μmol/L)?
**A.** 2.58 fold of induction

**Q.** For `CC(C)(C)c1cc(O)ccc1O` [tBHQ, t-butylhydroquinone, reference compound], which “Luciferase reporter activity (fold of induction)” value ([2]; 0.1 μmol/L) is on record?
**A.** 1.46 fold of induction

**Q.** And the “Luciferase reporter activity (fold of induction)” value ([2]; 1 μmol/L)?
**A.** 1.38 fold of induction

**Q.** And the “Luciferase reporter activity (fold of induction)” value ([2]; 10 μmol/L)?
**A.** 3.61 fold of induction
